Minimal effective concentration data for 22 compounds are collected here from patent publication US20250011289A1, “1H-BENZO[B]AZEPIN-2(3H)-ONE COMPOUNDS, COMPOSITIONS AND METHODS OF TREATING CANCER” (Chengdu Anticancer Bioscience, Ltd., priority 2021, published 2025).

Where two headings read alike, the source gives them in different places.

For one test, the system named is RPE-Neo or RPE-MYC cells. In words: MTT assay of cellular proliferation. The format is cell-based. The settings on record: compounds at 20 nM to 20 μM; read-out: Min. Effective conc. for Proliferative arrest (>50%). The gist of the method: (§1)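 RPE-Neo, RPE-MYC or RPE-MYC EGFP-Histone 2B cells exposed to compound at 20 nM to 20 μM, 18-24 h after plating. Mitotic arrest or DNA-content change imaged at 24, 48 or 72 h; proliferation by MTT. Values binned A (1 nM–1.0 μM), B (>1.00–10.0 μM), C (>10.0–30.0 μM), D (>30.0–<1000 μM).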
(Formazan colour is commonly taken as a measure of viable cells.)

In test [1] the test system is RPE-Neo or RPE-MYC or RPE-MYC expressing an EGFP-Histone 2B fusion protein. In words: Phenotypic screening assay (arrest in mitosis or change in DNA content, IN-Cell Analyzer). The settings on record: compounds at 20 nM to 20 μM, analysed 24, 48 or 72 hours after initiation of treatment. Type of test: cell-based. The gist of the method:
as §1

Setting [2] is: read-out: Min. Effective conc. for Along with Cell Death.
The mark [3] stands for this setting: read-out: Min. Effective conc. for Mitotic Arrest (>5%).
Where [4] appears, read: read-out: Min. Effective conc. for Polyploidy (≥5%).

In the case of `Cc1ccc(CN2C(=O)CC(c3nnc(C4CC4)o3)=C(C3CC3)c3ccccc32)cc1F` [Compound 20-29], the minimal effective concentration (with RPE-Neo or RPE-MYC cells; in test [1] (setting [2]); in test [1] (setting [3]); in test [1] (setting [4])) was 1 to 10 µM each time.

As to `CC1=C(c2nnc(C3CC3)o2)CC(=O)N(Cc2ccc(C)c(F)c2)c2ccccc21` [Compound 20-30], the minimal effective concentration (with RPE-Neo or RPE-MYC cells; in test [1] (setting [2]); in test [1] (setting [3]); in test [1] (setting [4])) was 0.001 to 1 µM throughout.

Turning to `C#CC1=C(c2nnc(C3CC3)o2)CC(=O)N(Cc2ccc(C)c(F)c2)c2ccccc21` [Compound 20-32, 4-(5-cyclopropyl-1,3,4-oxadiazol-2-yl)-5-ethynyl-1-(3-fluoro-4-methylbenzyl)-1,3-dihydro-2H-benzo[b]azepin-2-one], the minimal effective concentration (with RPE-Neo or RPE-MYC cells; in test [1] (setting [2]); in test [1] (setting [3]); in test [1] (setting [4])) was 0.001 to 1 µM throughout.

For the compound `Cc1ccc(CN2C(=O)CC(c3nc[nH]n3)=C(Br)c3ccccc32)cc1F` [Compound 22-1, 5-bromo-1-(3-fluoro-4-methylbenzyl)-4-(1H-1,2,4-triazol-3-yl)-1,3-dihydro-2H-benzo[b]azepin-2-one], the minimal effective concentration (in the test on RPE-Neo or RPE-MYC cells; in test [1] (setting [2]); in test [1] (setting [3]); in test [1] (setting [4])) was 1 to 10 µM in each case.

With `Cc1cnc(C2=C(Br)c3ccccc3N(Cc3ccc(C)c(F)c3)C(=O)C2)o1` [Compound 23-1, 5-bromo-1-(3-fluoro-4-methylbenzyl)-4-(5-methyloxazol-2-yl)-1,3-dihydro-2H-benzo[b]azepin-2-one], the minimal effective concentration (with RPE-Neo or RPE-MYC cells; in test [1] (setting [2]); in test [1] (setting [3]); in test [1] (setting [4])) was 0.001 to 1 µM throughout.

As for `Cc1ccc(CN2C(=S)CC(c3nnc(C4CC4)o3)=C(Br)c3ccccc32)cc1F` [Compound 24-1, 5-bromo-4-(5-cyclopropyl-1,3,4-oxadiazol-2-yl)-1-(3-fluoro-4-methylbenzyl)-1,3-dihydro-2H-benzo[b]azepine-2-thione], the minimal effective concentration (in the test on RPE-Neo or RPE-MYC cells; in test [1] (setting [2]); in test [1] (setting [3]); in test [1] (setting [4])) was 0.001 to 1 µM each time.

`CCOCC1=C(Cl)c2ccccc2N(Cc2ccc(C)c(F)c2)C(=O)C1` [Compound 24-2, 5-chloro-4-(ethoxymethyl)-1-(3-fluoro-4-methylbenzyl)-1,3-dihydro-2H-benzo[b]azepin-2-one]: the minimal effective concentration (with RPE-Neo or RPE-MYC cells; in test [1] (setting [2]); in test [1] (setting [3]); in test [1] (setting [4])) was 0.001 to 1 µM each time.

Turning to `COC1=C(c2cnco2)CC(=O)N(Cc2ccc(C)c(F)c2)c2ccccc21` [Compound 26-1, 1-(3-fluoro-4-methylbenzyl)-5-methoxy-4-(oxazol-5-yl)-1,3-dihydro-2H-benzo[b]azepin-2-one], the minimal effective concentration (in the test with RPE-Neo or RPE-MYC cells; in test [1] (setting [2]); in test [1] (setting [3]); in test [1] (setting [4])) was 1 to 10 µM each time.

For the compound `COC1=C(CO)CC(=O)N(Cc2ccc(C)c(F)c2)c2ccccc21` [Compound 27-1, 1-(3-fluoro-4-methylbenzyl)-4-(hydroxymethyl)-5-methoxy-1,3-dihydro-2H-benzo[b]azepin-2-one], the minimal effective concentration (in the test with RPE-Neo or RPE-MYC cells; in test [1] (setting [2]); in test [1] (setting [3]); in test [1] (setting [4])) was 30 to 1000 µM throughout.

As to `COCC1=C(OC)c2ccccc2N(Cc2ccc(C)c(F)c2)C(=O)C1` [Compound 28-1, 1-(3-fluoro-4-methylbenzyl)-5-methoxy-4-(methoxymethyl)-1,3-dihydro-2H-benzo[b]azepin-2-one], the minimal effective concentration (with RPE-Neo or RPE-MYC cells; in test [1] (setting [2]); in test [1] (setting [3]); in test [1] (setting [4])) was 1 to 10 µM each time.

Regarding `COc1ccc(C(=O)N2CCC(c3nnc(C4CC4)o3)=C(Br)c3ccccc32)cc1F` [Compound 34-2, (5-bromo-4-(5-cyclopropyl-1,3,4-oxadiazol-2-yl)-2,3-dihydro-1H-benzo[b]azepin-1-yl)(3-fluoro-4-methoxyphenyl)methanone], the minimal effective concentration (in the test on RPE-Neo or RPE-MYC cells; in test [1] (setting [2]); in test [1] (setting [3]); in test [1] (setting [4])) was 0.001 to 1 µM throughout.

As for `COc1ccc(S(=O)(=O)N2CCC(c3nnc(C4CC4)o3)=C(Br)c3ccccc32)cc1F` [Compound 34-3, 2-(5-bromo-1-((3-fluoro-4-methoxyphenyl)sulfonyl)-2,3-dihydro-1H-benzo[b]azepin-4-yl)-5-cyclopropyl-1,3,4-oxadiazole], the minimal effective concentration (in the test with RPE-Neo or RPE-MYC cells; in test [1] (setting [2]); in test [1] (setting [3]); in test [1] (setting [4])) was 1 to 10 µM in each case.

In the case of `Cc1ccc(S(=O)(=O)N2CCC(c3nnc(C4CC4)o3)=C(Br)c3ccccc32)cc1` [Compound 34-4, 2-(5-bromo-1-tosyl-2,3-dihydro-1H-benzo[b]azepin-4-yl)-5-cyclopropyl-1,3,4-oxadiazole], the minimal effective concentration (in the test with RPE-Neo or RPE-MYC cells; in test [1] (setting [2]); in test [1] (setting [3]); in test [1] (setting [4])) was 1 to 10 µM throughout.

In the case of `Cc1ccc(C(C)N2C(=O)CC(c3nnc(C4CC4)o3)=C(Br)c3ccccc32)cc1F` (stereo not shown) [Compound 40], the minimal effective concentration (with RPE-Neo or RPE-MYC cells; in test [1] (setting [2]); in test [1] (setting [3]); in test [1] (setting [4])) was 1 to 10 µM in each case.

Take `COCC1=C(Br)c2ccccc2N(Cc2ccc(C)c(F)c2)C(=O)C1` [Compound 42, 5-bromo-1-(3-fluoro-4-methylbenzyl)-4-(methoxymethyl)-1,3-dihydro-2H-benzo[b]azepin-2-one]: the minimal effective concentration (with RPE-Neo or RPE-MYC cells; in test [1] (setting [2]); in test [1] (setting [3]); in test [1] (setting [4])) was 0.001 to 1 µM throughout.

For the compound `Cc1ccc(CN2C(=O)CC(COC3CCOC3)=C(Br)c3ccccc32)cc1F` (stereo not shown) [Compound 44-1, 5-bromo-1-(3-fluoro-4-methylbenzyl)-4-(((tetrahydrofuran-3-yl)oxy)methyl)-1,3-dihydro-2H-benzo[b]azepin-2-one], the minimal effective concentration (in the test with RPE-Neo or RPE-MYC cells; in test [1] (setting [2]); in test [1] (setting [3]); in test [1] (setting [4])) was 0.001 to 1 µM in each case.

Regarding `Cc1ccc(CN2C(=O)CC(COC3CCOCC3)=C(Br)c3ccccc32)cc1F` [Compound 44-2, 5-bromo-1-(3-fluoro-4-methylbenzyl)-4-(((tetrahydro-2H-pyran-4-yl)oxy)methyl)-1,3-dihydro-2H-benzo[b]azepin-2-one], the minimal effective concentration (in the test with RPE-Neo or RPE-MYC cells; in test [1] (setting [2]); in test [1] (setting [3]); in test [1] (setting [4])) was 1 to 10 µM each time.

Consider `Cc1ccc(CN2C(=O)CC(COCC3CCOC3)=C(Br)c3ccccc32)cc1F` (stereo not shown) [Compound 44-3], for which the minimal effective concentration with RPE-Neo or RPE-MYC cells lay within 0.001 to 1 µM; in test [1] (setting [2]) it was 0.001 to 1 µM; in test [1] (setting [3]) it was 1 to 10 µM; in test [1] (setting [4]), 0.001 to 1 µM.

With `Cc1ccc(CN2C(=O)CC(COCC3CCCO3)=C(Br)c3ccccc32)cc1F` (stereo not shown) [Compound 44-4, 5-bromo-1-(3-fluoro-4-methylbenzyl)-4-(((tetrahydrofuran-2-yl)methoxy)methyl)-1,3-dihydro-2H-benzo[b]azepin-2-one], the minimal effective concentration (in the test on RPE-Neo or RPE-MYC cells; in test [1] (setting [2]); in test [1] (setting [3]); in test [1] (setting [4])) was 1 to 10 µM in each case.

Turning to `Cc1ccc(CN2C(=O)CC(CO[C@@H]3CCOC3)=C(Br)c3ccccc32)cc1F` [Compound 44-5, (R)-5-bromo-1-(3-fluoro-4-methylbenzyl)-4-(((tetrahydrofuran-3-yl)oxy)methyl)-1,3-dihydro-2H-benzo[b]azepin-2-one], the minimal effective concentration (in the test on RPE-Neo or RPE-MYC cells; in test [1] (setting [2]); in test [1] (setting [3]); in test [1] (setting [4])) was 0.001 to 1 µM throughout.

As to `Cc1ccc(CN2C(=O)CC(CO[C@H]3CCOC3)=C(Br)c3ccccc32)cc1F` [Compound 44-6, (S)-5-bromo-1-(3-fluoro-4-methylbenzyl)-4-(((tetrahydrofuran-3-yl)oxy)methyl)-1,3-dihydro-2H-benzo[b]azepin-2-one], the minimal effective concentration (in the test with RPE-Neo or RPE-MYC cells; in test [1] (setting [2]); in test [1] (setting [3]); in test [1] (setting [4])) was 0.001 to 1 µM each time.

Take `Cc1ccc(CN2C(=O)CC(CN3CCCC3)=C(Br)c3ccccc32)cc1F` [Compound 45, 5-bromo-1-(3-fluoro-4-methylbenzyl)-4-(pyrrolidin-1-ylmethyl)-1,3-dihydro-2H-benzo[b]azepin-2-one]: the minimal effective concentration (with RPE-Neo or RPE-MYC cells; in test [1] (setting [2]); in test [1] (setting [3]); in test [1] (setting [4])) was 1 to 10 µM each time.
